Reference: patent US9802928B2 (Merck Sharp & Dohme Corp., priority 2013, dated 2017)

Columns and labels:
[1] = molecular target: soluble human BACE1 catalytic domain (Homo sapiens (Human), UniProt P56817); assay: BACE1 HTRF FRET Assay; assay type: biochemical; conditions: Ki calculated from IC50 using the Cheng-Prusoff equation; QSY7-APPswe-Eu substrate, pH 5.0
Text: Na^+-Acetate pH 5.0; 1% Brij-35; Glycerol; Dimethyl Sulfoxide (DMSO); Recombinant human soluble BACE1 catalytic domain (>95% pure); APP Swedish mutant peptide substrate (QSY7-APP^swe-Eu): QSY7-[…]-Europium-amide.
A homogeneous time-resolved FRET assay can be used to determine IC50 values for inhibitors of the soluble human BACE1 catalytic domain. This assay monitors the increase of 620 nm fluorescence that resulted from BACE1 cleavage of an APPswedish APP^swe mutant peptide FRET substrate (QSY7-[…]-Europium-amide). This substrate contains an N-terminal QSY7 moiety that serves as a quencher of the C-terminal Europium fluorophore (620 nm Em). In the absence of enzyme activity, 620 nm fluorescence is low in the assay and increased linearly over 3 hours in the presence of uninhibited BACE1 enzyme Inhibition of BACE1 cleavage of the QSY7-APP^swe-Eu substrate by inhibitors is manifested as a suppression of 620 nm fluorescence.
Varying concentrations of inhibitors at 3× the final desired concentration in a volume of 10 ul are preincubated with purified human BACE1 catalytic domain (3 nM in 10 μl) for 30 minutes at 30° C. in reaction buffer containing 20 mM Na-Acetate pH 5.0, 10% glycerol, 0.1% Brij-35 and 7.5% DSMO. Reactions are initiated by addition of 10 μl of 600 nM QSY7-APP^swe-Eu substrate (200 nM final) to give a final reaction volume of 30 μl in a 384 well Nunc HTRF plate. The reactions are incubated at 30° C. for 1.5 hours. The 620 nm fluorescence is then read on a Rubystar HTRF plate reader (BMG Labtechnologies) using a 50 millisecond delay followed by a 400 millisecond acquisition time window. Inhibitor IC50 values are derived from non-linear regression analysis of concentration response curves. Ki values are then calculated from IC50 values using the Cheng-Prusoff equation using a previously determined […] of 8 μM for the QSY7-APP^swe-Eu substrate at BACE1.

[2] = molecular target: purified human autoBACE-2 (Homo sapiens (Human), UniProt Q9Y5Z0); assay: BACE-2 Assay (BACE-HTRF assay); assay type: biochemical; conditions: Ki calculated from IC50 using the Cheng-Prusoff equation; QSY7-EISEVNLDAEFC-Eu-amide substrate, pH 5.0; read-out: BACE2 Ki
Sequence of purified human autoBACE-2 (Q9Y5Z0 63-473 limits assumed): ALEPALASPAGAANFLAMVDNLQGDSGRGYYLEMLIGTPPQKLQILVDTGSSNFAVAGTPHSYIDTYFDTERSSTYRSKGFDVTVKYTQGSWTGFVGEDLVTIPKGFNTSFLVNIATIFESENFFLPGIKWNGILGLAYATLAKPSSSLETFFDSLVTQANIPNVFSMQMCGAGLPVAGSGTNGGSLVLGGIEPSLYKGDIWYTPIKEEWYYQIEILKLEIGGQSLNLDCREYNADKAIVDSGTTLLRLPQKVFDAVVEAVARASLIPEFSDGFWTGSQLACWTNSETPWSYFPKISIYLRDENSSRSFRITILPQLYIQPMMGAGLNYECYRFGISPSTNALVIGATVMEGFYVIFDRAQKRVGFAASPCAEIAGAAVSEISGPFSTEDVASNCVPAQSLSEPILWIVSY
Description: Inhibitor IC50s at purified human autoBACE-2 are determined in a time-resolved endpoint proteolysis assay that measures hydrolysis of the QSY7-EISEVNLDAEFC-Eu-amide FRET peptide substrate (BACE-HTRF assay). BACE-mediated hydrolysis of this peptide results in an increase in relative fluorescence (RFU) at 620 nm after excitation with 320 nm light. Inhibitor compounds, prepared at 3× the desired final concentration in 1×BACE assay buffer (20 mM sodium acetate pH 5.0, 10% glycerol, 0.1% Brij-35) supplemented with 7.5% DMSO are pre-incubated with an equal volume of autoBACE-2 enzyme diluted in 1×BACE assay buffer (final enzyme concentration 1 nM) in black 384-well NUNC plates for 30 minutes at 30° C. The assay is initiated by addition of an equal volume of the QSY7-EISEVNLDAEFC-Eu-amide substrate (200 nM final concentration, Km=8 μM […] for autoBACE-2) prepared in 1×BACE assay buffer supplemented with 7.5% DMSO and incubated for 90 minutes at 30° C. DMSO is present at 5% final concentration in the assay. Following laser excitation of sample wells at 320 nm, the fluorescence signal at 620 nm is collected for 400 ms following a 50 μs delay on a RUBYstar HTRF plate reader (BMG Labtechnologies). Raw RFU data is normalized to maximum (1.0 nM BACE/DMSO) and minimum (no enzyme/DMSO) RFU values. IC50s are determined by nonlinear regression analysis (sigmoidal dose response, variable slope) of percent inhibition data with minimum and maximum values set to 0 and 100 percent respectively. Similar IC50s are obtained when using raw RFU data. The Ki values are calculated from the IC50 using the Cheng-Prusoff equation.

Sequence of soluble human BACE1 catalytic domain (P56817 75-416): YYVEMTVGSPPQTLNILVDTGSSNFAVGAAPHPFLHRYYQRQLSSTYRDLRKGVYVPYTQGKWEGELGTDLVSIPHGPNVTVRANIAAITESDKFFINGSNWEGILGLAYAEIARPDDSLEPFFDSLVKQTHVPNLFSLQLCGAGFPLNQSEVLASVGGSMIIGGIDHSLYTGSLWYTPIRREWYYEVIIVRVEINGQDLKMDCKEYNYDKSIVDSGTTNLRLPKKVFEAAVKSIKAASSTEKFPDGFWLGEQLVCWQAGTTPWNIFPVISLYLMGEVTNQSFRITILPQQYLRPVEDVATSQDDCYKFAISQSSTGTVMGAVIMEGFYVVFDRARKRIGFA

Ki [1] [nM]	Ki [2] [nM]	Compound
58	346	CN1C(=N)N[C@](C)(c2cc(NC(=O)c3cnc(C(F)(F)F)cn3)ccc2F)C2(CC2)S1(=O)=O [Example 1p, 5-N-{4-fluoro-3-[(8R)-6-imino-5,8-dimethyl-4,4-dioxido-4-thia-5,7-diazaspiro[2.5]oct-8-yl]phenyl}-5-(trifluoromethyl)pyrazine-2-carboxamide]
8	55	CN1C(=N)N[C@](C)(c2cc(NC(=O)c3ccc(C(F)(F)F)cn3)ccc2F)C2(CC2)S1(=O)=O [Example 1f, N-{4-fluoro-3-[(8R)-6-imino-5,8-dimethyl-4,4-dioxido-4-thia-5,7-diazaspiro[2.5]oct-8-yl]phenyl}-5-(trifluoromethyl)pyridine-2-carboxamide]
38	41	COc1cnc(C(=O)Nc2ccc(F)c([C@@]3(C)NC(=N)N(C)S(=O)(=O)C34CC4)c2)c(C)n1 [Example 1q, N-{4-fluoro-3-[(8R)-6-imino-5,8-dimethyl-4,4-dioxido-4-thia-5,7-diazaspiro[2.5]oct-8-yl]phenyl}-5-methoxy-3-methylpyrazine-2-carboxamide]
